From patent US6066633A, “Metalloproteinase inhibitors” (Adir et Compagnie, priority 1997, dated 2000)
Structures can show the parent of a compound that is named as a salt.

Legend:
[1] = biological target: MMP-3 (stromelysin 1) (Homo sapiens, UniProt P08254); assay: Enzymatic Inhibition of Metalloproteinases (MMP-3); assay type: biochemical; conditions: 20 μM substrate, pH 7.7, 37° C., six hours; read-out: IC50 for the enzyme MMP-3
Description: (§1) Enzymatic Inhibition of Metalloproteinases
(§2) Four recombinant human enzymes MMP-1 (interstitial collagenase), MMP-2 (72 kDa gelatinase A), MMP-3 (stromelysin 1) and MMP-9 (92 kDa gelatinase B) are activated with APMA (4-aminophenylmercuric acetate).
(§3) The enzymatic tests are carried out using a peptido-mimetic substrate:
(§4) DnpProChaGlyCys(Me)HisAlaLys(Nma)NH2,
(§5) which is cleaved between the glycine and the cysteine to yield a fluorescent derivative (Anal. Biochem., 212, 58-64, 1993).
(§6) The reactions, carried out in a buffer of 50 mM Tris, 200 mM NaCl, 5 mM CaCl2, 0.1% Brij 35 at pH 7.7, are initiated using 20 μM substrate in a total volume of 100 μl at 37° C. The fluorescence obtained after six hours is read in a 96-well plate in a fluorimeter equipped with a combination of 340 nm and 400 nm filters for excitation and emission.

[2] = biological target: MMP-9 (92 kDa gelatinase B) (Homo sapiens, UniProt P14780); assay: Enzymatic Inhibition of Metalloproteinases (MMP-9); assay type: biochemical; conditions: 20 μM substrate, pH 7.7, 37° C., six hours; read-out: IC50 for the enzyme MMP-9
Description: as §1, §2, §3, §4, §5, §6

[3] = biological target: T1, MMP-2 (72 kDa gelatinase A) (Homo sapiens, UniProt P08253); assay: Enzymatic Inhibition of Metalloproteinases (MMP-2); assay type: biochemical; conditions: 20 μM substrate, pH 7.7, 37° C., six hours; read-out: IC50 for the enzyme MMP-2
T1 sequence (P08253 110-660): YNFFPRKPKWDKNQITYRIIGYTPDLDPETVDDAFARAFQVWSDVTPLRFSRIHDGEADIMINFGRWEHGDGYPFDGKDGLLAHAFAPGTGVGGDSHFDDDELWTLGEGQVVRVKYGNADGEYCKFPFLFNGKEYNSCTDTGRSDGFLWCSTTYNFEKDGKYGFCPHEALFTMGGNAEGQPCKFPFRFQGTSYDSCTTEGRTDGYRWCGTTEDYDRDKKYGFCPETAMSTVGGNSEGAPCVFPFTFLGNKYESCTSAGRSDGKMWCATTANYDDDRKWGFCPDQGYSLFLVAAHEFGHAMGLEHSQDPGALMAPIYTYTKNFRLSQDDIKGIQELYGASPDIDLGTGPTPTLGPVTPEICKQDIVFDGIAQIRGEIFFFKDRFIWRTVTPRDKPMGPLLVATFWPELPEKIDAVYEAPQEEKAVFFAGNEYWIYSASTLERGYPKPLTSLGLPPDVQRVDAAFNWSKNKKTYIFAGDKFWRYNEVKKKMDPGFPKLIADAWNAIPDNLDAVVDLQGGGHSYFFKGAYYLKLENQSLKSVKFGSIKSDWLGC
Description: as §1, §2, §3, §4, §5, §6

[4] = tested on: ovarian cancers; conditions: Becket et al., DDT 1996, 1 (1), 16; cited from earlier work
[5] = tested on: neovascularisation (pseudo-vessels) from portions of thoracic aorta; assay: In Vitro Angiogenesis (thoracic aorta portions in type I collagen gel); assay type: cell-based, male Fischer 344 rats; conditions: Rattus norvegicus, 120 h, five days of culture in a medium without serum, vascular density
Source text: Portions of thoracic aorta of male Fischer 344 rats aged from 8 to 12 weeks are immersed in a type I collagen gel according to the method of Nicosia et Ottinetti (1990). After five days of culture in a medium without serum, the preparations are examined using a microscope and the formation of pseudo-vessels is quantified in terms of vascular density after digitisation and image analysis.

[6] = biological target: T2, MMP-1 (interstitial collagenase) (Homo sapiens, UniProt P03956); assay: Enzymatic Inhibition of Metalloproteinases (MMP-1); assay type: biochemical; conditions: 20 μM substrate, pH 7.7, 37° C., six hours; read-out: IC50 for the enzyme MMP-1
T2 sequence (P03956 100-469): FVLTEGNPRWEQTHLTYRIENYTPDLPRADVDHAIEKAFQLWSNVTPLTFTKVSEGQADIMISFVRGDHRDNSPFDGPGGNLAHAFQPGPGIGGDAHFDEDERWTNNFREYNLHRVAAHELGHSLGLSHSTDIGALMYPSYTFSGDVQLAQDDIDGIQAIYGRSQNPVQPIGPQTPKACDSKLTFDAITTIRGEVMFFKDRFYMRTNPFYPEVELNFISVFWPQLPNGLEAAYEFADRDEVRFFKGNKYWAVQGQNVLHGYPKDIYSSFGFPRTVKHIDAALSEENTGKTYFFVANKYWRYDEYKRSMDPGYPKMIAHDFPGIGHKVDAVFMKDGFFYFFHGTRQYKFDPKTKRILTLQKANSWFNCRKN
Description: as §1, §2, §3, §4, §5, §6

Sequence of MMP-9 (92 kDa gelatinase B) (P14780 107-707 limits assumed): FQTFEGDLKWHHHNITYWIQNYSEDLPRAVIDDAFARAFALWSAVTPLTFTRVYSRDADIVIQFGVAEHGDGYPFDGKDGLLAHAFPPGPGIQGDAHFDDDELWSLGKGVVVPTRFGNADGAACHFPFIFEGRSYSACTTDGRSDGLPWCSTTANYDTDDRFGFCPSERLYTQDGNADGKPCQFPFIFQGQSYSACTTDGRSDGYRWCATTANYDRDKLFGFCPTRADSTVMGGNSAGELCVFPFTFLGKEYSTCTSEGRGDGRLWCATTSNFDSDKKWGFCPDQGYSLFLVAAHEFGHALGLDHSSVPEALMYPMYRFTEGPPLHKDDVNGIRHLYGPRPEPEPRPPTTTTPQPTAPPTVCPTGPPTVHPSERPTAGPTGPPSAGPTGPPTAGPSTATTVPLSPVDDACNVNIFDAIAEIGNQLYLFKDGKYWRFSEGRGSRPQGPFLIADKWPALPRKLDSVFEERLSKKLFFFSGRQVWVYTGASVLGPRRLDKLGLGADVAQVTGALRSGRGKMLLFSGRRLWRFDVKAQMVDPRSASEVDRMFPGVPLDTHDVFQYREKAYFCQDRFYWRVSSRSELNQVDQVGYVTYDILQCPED
Sequence of MMP-3 (stromelysin 1) (P08254 100-477): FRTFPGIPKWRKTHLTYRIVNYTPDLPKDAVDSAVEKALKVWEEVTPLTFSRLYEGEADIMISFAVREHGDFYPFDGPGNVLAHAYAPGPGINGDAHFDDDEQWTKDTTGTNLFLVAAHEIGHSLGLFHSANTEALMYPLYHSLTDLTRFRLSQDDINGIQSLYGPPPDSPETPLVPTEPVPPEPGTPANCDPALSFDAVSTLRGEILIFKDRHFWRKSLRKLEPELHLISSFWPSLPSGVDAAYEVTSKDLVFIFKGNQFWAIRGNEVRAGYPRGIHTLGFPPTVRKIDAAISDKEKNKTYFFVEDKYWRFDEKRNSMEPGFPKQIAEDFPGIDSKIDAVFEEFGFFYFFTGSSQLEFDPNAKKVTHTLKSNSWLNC

SMILES: COc1ccc(S(=O)(=O)N2Cc3c(c4ccccc4n3CC(=O)NCCSCCN3CCOCC3)C[C@@H]2C(=O)NO)cc1 [Example 11, 2-[(4-Methoxyphenyl)sulphonyl]-9-{[2-(2-morpholin-4-ylethylsulphanyl)ethylcarbamoyl]methyl}-2,3,4,9-tetrahydro-1H-β-carboline-(3R)-(N-hydroxy)carboxamide Hydrochloride]
- IC50 [1]: 3.1 nM
- IC50 [2]: 0.1 nM
- IC50 [3]: 1.6 nM

SMILES: CNC(=O)C(Cc1ccccc1)NC(=O)C(CC(C)C)C(CSc1cccs1)C(=O)NO (centres unmarked) [BB94]
- anti-tumour activity in clinical use [4]: active in ovarian cancers

SMILES: COc1ccc(S(=O)(=O)N2Cc3c(c4ccccc4n3CC(=O)N(C)CCN3CCOCC3)C[C@@H]2C(=O)NO)cc1 [Example 15, 2-[(4-Methoxyphenyl)sulphonyl]-9-[N-methyl-(2-morpholin-4-ylethylcarbamoyl)methyl]-2,3,4,9-tetrahydro-1H-β-carboline-(3R)-(N-hydroxy)carboxamide Hydrochloride]
- inhibition at 1 µM [5]: 50 to 100%

SMILES: COc1ccc(S(=O)(=O)N2Cc3c(c4ccccc4n3CC(=O)NCCSCCCN3CCOCC3)C[C@@H]2C(=O)NO)cc1 [Example 13, 2-[(4-Methoxyphenyl)sulphonyl]-9-{[2-(3-morpholin-4-ylpropylsulphanyl)ethylcarbamoyl]methyl}-2,3,4,9-tetrahydro-1H-β-carboline-(3R)-(N-hydroxy)carboxamide Hydrochloride]
- inhibition at 1 µM [5]: 50 to 100%

SMILES: COc1ccc(S(=O)(=O)N2Cc3c(c4ccccc4n3CC(=O)NCCN3CCOCC3)C[C@@H]2C(=O)NO)cc1 [Example 2, 2-[(4-Methoxyphenyl)sulphonyl]-9-[(2-morpholin-4-ylethylcarbamoyl)methyl]-2,3,4,9-tetrahydro-1H-β-carboline-(3R)-(N-hydroxy)carboxamide Acetate]
- IC50 [6]: 32.6 nM
- inhibition at 1 µM [5]: 50 to 100%
